Laboratory results taken from patent publication EP0365089A2, “2-Aryl-5(3-methoxy-5-(hydroxypropylsulfonyl)-4-propoxyphenyl) tetrahydrothiophen and analogs” (MERCK & CO. INC., priority 1988, dated 1990).

Experiments:
[1] = target: T1, PAF binding to its specific receptor binding site on rabbit platelet plasma membranes (Oryctolagus cuniculus, UniProt G1TEI7); test: Inhibition of 3H-PAF binding to platelet plasma membrane (isotopic labeling and filtration); settings: for inhibition at 30000 µM: dose 30 mM; for inhibition at 30 µM: dose .03 mM
T1 construct: from tissue; host or cells: rabbit platelet plasma membranes
Description: In vitro, they inhibit PAF-induced functions in both the cellular and tissue levels by disturbing the PAF binding to its specific receptor site. The ability of a compound of formula (I) to inhibit the PAF binding to its specific receptor binding site on rabbit platelet plasma membranes was measured by an assay developed by us.
The inhibition of H^3-PAF binding to human or rabbit platelet plasma membrane by a PAF-antagonist of Formula (I) was determined by a method employing isotopic labeling and filtration techniques. Generally, a series of Tris-buffered solutions of the selected antagonist at predetermined concentrations were prepared. Each of these solutions contains 1 pmole of ^3H-PAF, a known amount of the test antagonist, and a sufficient amount of the pH 7.0 Tris-buffer solution (10mM Tris, 0.25% bovine serum albumin, and 10 mM MgC12 per ml water) to make the final volume of 1 ml. After adding into a set of test tubes each with 100 αg of the platelet plasma […] suspension and one of the Tris-buffer solutions described above, the resulting mixture in each test tube was incubated at 0 C for about one hour or until the reaction was complete. Two control samples, one of which (Ci) contains all the ingredients described above except the antagonist and the other (C2) contains C1 plus a 1000-fold excess of unlabeled PAF, were also prepared and incubated simultaneously with the test samples. After the incubation was completed, the contents of each test tube were filtered under vacuo through a Whatman GF/C fiberglass filter and the residue washed rapidly several times with a total of 20 ml cold (0°-5°C) Tris-buffer solution. Each washed residue was then suspended in 10 ml scintillation solution (Aquasol 2, New England Nuclear, Connecticut) and the radioactivity was counted in a Packard Tri-Carb 460CD Liquid Scintillation System. Defining the counts from a test sample as "Total binding with antagonist"; the counts from the control sample C1, as "Total binding C1"; and the counts from the control sample C2 as "non-specific binding C2", the percent inhibition of each test antagonist can be determined by the following equation: [formula] Specific binding =(Total binding C1)-(non-specific binding C2)

PAF = test: PAF-antagonist activity, test not specified; settings: ranking in words, no test named
[2] = test system: PAF-induced symptoms including decreased arterial blood flow, increased vascular permeability and increased degranulation in rats; test: Oral activity of PAF-antagonists in inhibiting PAF-induced symptoms in rats; type: in vivo; settings: oral dose 1 mg/kg, male rats weighing about 190-220g
Description: • 1.) Fast rats overnight. • 2.) Weigh the rats the morning after fasting, • 3.) Suspend a test compound in 0.5% methylcellulose with 12 ounce hand homogenizer or a sonicator if necessary to yield a fine suspension. […] After the beginning of the PAF infusion as well as just before the PAF infusion, measure the following three parameters for each blood sample: • a) the arterial blood flow rate: determined by measuring the time to fill a pre-calibrated 14 µl capillary tube; • b) the vascular permeability: measured by calculating the increased hematocrit which results from loss of plasma from the circulation to extra-vascular spaces. • c) the circulatory degranulation: determined by assaying the increased plasma level of N-acetylglucosaminidase, a marker lysosomal enzyme. • 7.) Determine the percent change in each parameter of a blood sample at each post-PAF interval including the 30 minute interval, relative to the pre-PAF blood values. • 8.) Calculate the percent inhibition by the formula: % inhibition = [formula]

T1 sequence (G1TEI7 1-342): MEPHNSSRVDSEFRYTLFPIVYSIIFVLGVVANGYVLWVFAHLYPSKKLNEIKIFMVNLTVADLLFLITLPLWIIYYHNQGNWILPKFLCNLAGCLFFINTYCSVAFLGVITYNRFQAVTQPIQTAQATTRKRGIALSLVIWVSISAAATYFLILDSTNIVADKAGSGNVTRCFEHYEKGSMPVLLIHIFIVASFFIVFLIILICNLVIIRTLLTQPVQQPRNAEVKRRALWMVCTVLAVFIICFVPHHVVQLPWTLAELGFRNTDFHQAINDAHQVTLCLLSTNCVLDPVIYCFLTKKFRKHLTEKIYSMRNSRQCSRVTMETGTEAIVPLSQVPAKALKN

| inhibition at 30000 µM [1] | inhibition at 30 µM [1] | SMILES | PAF-antagonist activity (PAF) | further results |
| --- | --- | --- | --- | --- |
| 6% | – | CCOc1c(OC)cc([C@H]2CC[C@H](c3cc(OC)c(OC)c(OC)c3)S2)cc1C(=O)Nc1cccc(Cl)c1 (relative stereo) [(3-chlorophenyl-aminocarbonyl)phenyl, trans-2-(3,4,5-trimethoxyphenyl)-5-(3-methoxy-4-ethoxy-5-(3-chlorophenylaminocarbonyl)-phenyl)tetrahydrothiophene] | most active | – |
| – | 69% | COc1cc(C2CCC(c3cc(OC)c(OC)c(OC)c3)S2)cc(OC)c1OC (centres unmarked) [same as Ar] | – | – |
| – | 89% | CCCOc1c(OC)cc([C@H]2CC[C@H](c3cc(OC)c(OC)c(OC)c3)S2)cc1S(=O)(=O)CC(C)O (relative stereo) [Trans-2-(3,4,5-trimethoxyphenyl)-5-(3-methoxy-5-(2-hydroxypropylsulfonyl)-4-propoxyphenyl)-tetrahydrothiophene] | most active | inhibition at 3 µM ([1]; dose .003 mM): 57%; %inhibition A = increased vascular permeability [2]: 60%; %inhibition B = increased degranulation [2]: 62% |
| 27% | – | CCCOc1c(C#N)cc([C@H]2CC[C@H](c3cc(OC)c(OC)c(OC)c3)S2)cc1OC (relative stereo) [3-cyano-4-propoxy-5-methoxyphenyl, trans-2-(3,4,5-trimethoxyphenyl)-5-(5-cyano-3-methoxy-4-propoxyphenyl)-tetrahydrothiophene] | – | – |
| – | – | COc1cc(C2CCC(c3cc(OC)c(OC)c(OC)c3)S2)cnc1OC (centres unmarked) [5,6-di-methoxy-3-pyridyl] | – | inhibition at 1000 µM ([1]; dose 1 mM): 80%; inhibition at 5000 µM ([1]; dose 5 mM): 96% |
